Source: patent publication US7867496B2, “Use of TGF-β antagonists to limit nephrotoxicity of immunosuppressive agents” (Genzyme Corporation, priority 2004, dated 2011)
Entries after “also recorded” stand apart in the source; their conditions may differ.

Tests used:
RAC-1 mRNA = test: intrarenal RAC-1 mRNA by real-time PCR, TAC study; type: in vivo, rat; details: TAC alone, 90 days, with respect to isograft controls
Experimental: (§1) TAC was administered at 0.25 mg/kg i.m. for 90 days; and the anti-TGF-β antibody, 1D11, was administered at 1 mg/kg twice a week. The control antibody used was 13C4.
(§2) RT-PCR was performed using a Bio-Rad iCycler™ system (Bio-Rad, Hercules, Calif.). RNAs were isolated from renal tissues using a kit from Promega (Madison, […].) and reverse-transcribed into cDNAs by using a cDNA synthesis kit from Invitrogen (Carlsbad, Calif.). The specificity of primers was tested by running a regular PCR for 40 cycles at 95° C. for 20 seconds and 60° C. for 1 minute, followed by separating in ethidium bromide containing agarose gels. The real-time PCR was performed using a SYBR Supermix kit (Bio-RAD) (40 cycles at 95° C. for 20 s and 60° C. for 1 minute). The PCR efficiency was examined by serially diluting template cDNA. The melting curve data was collected to check the PCR specificity and proper negative controls were included in each assay. The mRNA level for each gene for each sample was normalized to β-actin mRNA and presented as 2-[(Ct/β-actin-Ct/gene of interest)] as described in Khanna et al. (2005) Nephron Exp. Nephrol., 101:119-126.
(§3) Intrarenal expression of TGF-β, NOX-1 and p22phox was analyzed by RT-PCR in renal tissues from (1) isografts, (2) TAC, (3) TAC+anti-TGF-β antibody, and (3) TAC+control antibody treated animals at 90 days post transplantation. […]

TGF-β mRNA = test: intrarenal TGF-β mRNA by real-time PCR, TAC study; type: in vivo, rat; details: TAC alone, 90 days post transplantation, with respect to isograft controls
Experimental: as §1, §2, §3

TGF-β protein = test: intrarenal TGF-β protein immunohistochemistry, TAC study; type: in vivo, rat; details: TAC alone
Experimental: Plasma levels of TGF-β protein were measured as described in Khanna et al. (1999) Transplantation, 67:882-889. Intrarenal protein expression of TGF-β was examined immunohistochemically as essentially as described in Khanna et al. (2000) Transplantation, 73:1543-1549; Khanna et al. (2002) Kidney Intl., 62:2257-63; and Khanna et al. (1999) Transplantation, 67:614-619. Formalin-fixed paraffin-embedded tissues were sliced into fine sections, deparaffinized in xylene and rehydrated in graded ethanol to phosphate-buffered saline (PBS). After blocking endogenous peroxidase activity for 30 minutes with methanol/H2O2 (18:1 vol/vol), nonspecific binding was blocked for 1 hour with 1.5% avidin/biotin diluted in PBS supplemented with 10% normal horse serum and 3% BSA. Tissue sections were incubated overnight at 4° C. with specific primary antibodies (50 μg/ml) in above-mentioned PBS. Following extensive washing in PBS, slides were incubated at room temperature for 1 hour with diluted (1:1,000) biotin-labeled anti-mouse IgG horse anti-serum and washed again extensively in PBS and then in the ABC solution for 30 minutes. The slides were developed for 10 minutes in diaminobenzidine (DAB) and rinsed in water for 10 minutes. The slides were then counterstained with hematoxylin and dehydrated in graded ethanol and xylene.
The slides were mounted with Permount™ for evaluation. […]

TRX mRNA = test: intrarenal TRX mRNA by real-time PCR, TAC study; type: in vivo, rat; details: TAC alone compared to isograft controls
Experimental: as §1, §2
(§4) To further examine the effect of prolonged treatment with TAC on antioxidant genes, intrarenal mRNA expression of SOD and TRX was determined.

p22phox protein = test: intragraft p22phox protein by Western blot, TAC study; type: in vivo, rat; details: TAC compared to untreated allografts and isograft controls; monohydrate
Experimental: (§5) Frozen tissues were homogenized in ice-cold PBS with 1% Triton X-100, 1 mM phenylmethysulfonyl fluoride, 35 ng/ml pepstatin A and 10 ng/ml leupeptin. After centrifugation, 50 μg: of protein was electrophoresed by SDS PAGE as described in Khanna et al. (2005) Nephron Exp. Nephrol., 101:119-126. Blots were probed with appropriate dilutions of a polyclonal anti-p22phox antibody (RS554, a gift from Marsh Lab, Bozeman, Mont.) or anti-NOX antibody (Santa Cruz Biotechnology, Santa Cruz, Calif.), incubated with a horseradish peroxidase-conjugated secondary antibody at a 1:5,000 dilution, and visualized by enhanced chemiluminescence.
(§6) Expression of p22^phox and NOX-1 proteins was analyzed in kidney tissues from isografts, untreated allografts, and animals treated with TAC. Protein lysates (10 μg) were electrophoresed, transferred to nitrocellulose paper and probed with anti-p22^phox and anti NOX-1 antibodies.

SOD mRNA = test: intrarenal SOD mRNA by real-time PCR, TAC study; type: in vivo, rat; details: TAC alone compared to isograft controls
Experimental: as §1, §2, §4

NOX-1 protein = test: intragraft NOX-1 protein by Western blot, TAC study; type: in vivo, rat; details: TAC compared to untreated allografts and isograft controls; monohydrate
Experimental: as §5, §6

p22phox mRNA = test: intrarenal p22phox mRNA by real-time PCR, TAC study; type: in vivo, rat; details: TAC alone, 90 days, with respect to isograft controls
Experimental: as §1, §2, §3

NOX-1 mRNA = test: intrarenal NOX-1 mRNA by real-time PCR, TAC study; type: in vivo, rat; details: TAC alone, 90 days, with respect to isograft controls
Experimental: as §1, §2, §3

renal transplant = renal transplant histology, TAC study; type: in vivo, rat; details: TAC alone compared to isografts; monohydrate
Description: A portion of transplanted kidneys from each animal was fixed with formalin and imbedded in paraffin. Hematoxylin and eosin (H&E) and periodic acid schiff (PAS) stainings were used to assess histological changes. Renal histological changes we quantified by standard procedures. The severity of the glomerular injury was scored as described in Khanna et al. (2000) Transplantation, 73:1543-1549. Briefly, in each field, at least 50-60 glomeruli were counted for each specimen and lesions were scored on a five-point scale (0, no proliferation, almost normal histology; 1, about 25% segmental lesion; 2, segmental lesion of greater than 25% but less than 50%; 3, fibrotic lesions with diffuse proliferation; 4, almost completely fibrotic changes). PAS staining was used to determine the extent of extracellular matrix protein accumulation (not scored). Interlobular arteries in H&E-stained slides and lesions were scored.
The slides were mounted with Permount™ for evaluation. Samples from each group were graded for histopathological changes and immunohistochemical staining. The intensity of immunostaining was graded from 0 (no staining) to 4+ (maximum staining). […]
The effect of TAC, TAC+a control antibody and TAC+anti-TGF-β antibody treatment on morphological changes was assessed by histopathological examination in H&E- and PAS-stained thin kidney sections were evaluated.

TGF-β = details: cited from earlier work

| Molecule | increase in intrarenal RAC-1 mRNA expression (RAC-1 mRNA) | increase in intrarenal TGF-β mRNA expression (TGF-β mRNA) | intrarenal staining for TGF-β protein (TGF-β protein) | decrease in intrarenal TRX mRNA expression (TRX mRNA) | intragraft expression of p22phox protein (p22phox protein) | decrease in intrarenal SOD mRNA expression (SOD mRNA) | intragraft expression of NOX-1 protein (NOX-1 protein) | increase in intrarenal p22phox mRNA expression (p22phox mRNA) | increase in intrarenal NOX-1 mRNA expression (NOX-1 mRNA) | renal histological changes (H&E, PAS) (renal transplant) | Kd (TGF-β; approximately, binds TGF-β1 only, read-out: antigen affinity) | TGF-β isoform binding specificity (TGF-β; mammalian isoforms of TGF-β) |
| --- | --- | --- | --- | --- | --- | --- | --- | --- | --- | --- | --- | --- |
| C=CC[C@@H]1/C=C(\C)C[C@H](C)C[C@H](OC)[C@H]2O[C@@](O)(C(=O)C(=O)N3CCCC[C@H]3C(=O)O[C@H](/C(C)=C/[C@@H]3CC[C@@H](O)[C@H](OC)C3)[C@H](C)[C@@H](O)CC1=O)[C@H](C)C[C@@H]2OC (relative stereo) [TAC, [3S-[3R*[E (1S*,3S*,4S*)], 4S*,5R*,8S*,9E, 12R*,14R*,15S*,16R*,18S*,19S*,26aR*]]-5,6,8,11,12,13,14,15,16,17,18,19,24,25,26,26a-hexadecahydro-5,19-dihydroxy-3-[2-(4-hydroxy-3-methoxycyclohexyl)-1-methylethenyl]-14,16-dimethoxy-4,10,12,18-tetramethyl-8-(2-propenyl)-15,19-epoxy-3H-pyrido[2,1-c][1,4]oxaazacyclotricosine-1,7,20,21 (4H,23H)-tetrone, monohydrate] | 20 fold | 37 fold | increased staining for TGF-β protein | 80 fold | increased intragraft expression; also recorded: elevated | 27 fold | increased intragraft expression; also recorded: elevated | 31 fold | 18 fold | marked histological changes; also recorded: statistically significant (p<0.036) difference | – | – |
| CAT192: fully human recombinant anti-TGF-β antibody generated by phage display; specifically binds TGF-β1 only | – | – | – | – | – | – | – | – | – | – | ~8.4 pM | specifically binds TGF-β1 only |
